Test results published in EPA's ToxRefDB 2.

Key:
rat [1] = conditions: Subchronic oral toxicity in rodents, other, Feed, dose end: 90 day, group: systemic
rat [2] = conditions: Multigenerational reproductive toxicity study, sprague dawley, Oral, Feed, dose end: 2 generation
mouse [3] = conditions: Subchronic oral toxicity in rodents, cd1, Feed, dose end: 91 day, group: systemic
dog [4] = conditions: Subchronic oral toxicity in nonrodent, beagle, Feed, dose end: 90 day, group: systemic, systemic / in life observation / body weight / body weight gain + systemic / in life observation / clinical signs / emaciation + systemic / …
mouse [5] = conditions: Combined chronic toxicity/carcinogenicity, cd1, Oral, Feed, dose end: 80 week, group: systemic
rat [6] = conditions: Combined chronic toxicity/carcinogenicity, sprague dawley, Oral, Feed, dose end: 104 week, group: systemic
dog [7] = conditions: Chronic toxicity, beagle, Oral, Feed, dose end: 52 week, group: systemic
dog [8] = conditions: Sub-acute repeat dose toxicity; beagle; Oral; Gavage/Intubation; dose end: 23 day; group: systemic; systemic / in life observation / clinical signs / abnormal feces + systemic / in life observation / clinical signs / watery stools
dog [9] = conditions: Sub-acute repeat dose toxicity; beagle; Oral; Gavage/Intubation; dose end: 21 day; group: systemic; systemic / in life observation / clinical signs / abnormal feces + systemic / in life observation / clinical signs / watery stools
rat [10] = conditions: Subchronic oral toxicity in rodents, sprague dawley, Gavage/Intubation, dose end: 92 day, group: systemic
dog [11] = conditions: Subchronic oral toxicity in nonrodent, beagle, Gavage/Intubation, dose end: 92 day, group: systemic
rat [12] = conditions: Sub-acute repeat dose toxicity, sprague dawley, Oral, Gavage/Intubation, dose end: 15 day, group: systemic
dog [13] = conditions: Sub-acute repeat dose toxicity; beagle; Oral; Gavage/Intubation; dose end: 16 day; group: systemic; systemic / in life observation / clinical signs / abnormal feces + systemic / in life observation / clinical signs / emesis + systemic / in …
rat [14] = conditions: Sub-acute repeat dose toxicity, Oral, Gavage/Intubation, dose end: 12 day, group: systemic
rabbit = conditions: Sub-acute repeat dose toxicity, new zealand white, Oral, Gavage/Intubation, dose end: 5 day, group: systemic
[15] = systemic / organ weight / liver / absolute + systemic / organ weight / liver / relative to body weight + systemic / clinical chemistry / …
[16] = systemic / organ weight / liver / absolute + systemic / organ weight / liver / relative to body weight + systemic / in life observation / …
[17] = group: offspring, systemic / in life observation / body weight / offspring (pup) weight
[18] = group: parental, systemic / in life observation / body weight / body weight gain + systemic / in life observation / body weight / body weight
[19] = group: reproductive, reproductive / reproductive performance / gestational length / gestational length
[20] = systemic / pathology microscopic / liver / hypertrophy
[21] = systemic / pathology microscopic / liver / hypertrophy + systemic / clinical chemistry / albumin / albumin + systemic / clinical chemistry…
[22] = systemic / pathology gross / ear / misshapen
[23] = systemic / clinical chemistry / globulins / globulins + systemic / pathology gross / full gross necropsy / lymp lymphoma malignant …
[24] = systemic / in life observation / body weight / body weight + systemic / in life observation / body weight / body weight gain + systemic / in…
[25] = systemic / in life observation / body weight / body weight gain + systemic / in life observation / food consumption / food consumption
[26] = systemic / in life observation / body weight / body weight gain + systemic / in life observation / food consumption / food consumption + …
[27] = systemic / clinical chemistry / [other] / [other] + systemic / clinical chemistry / cytochrome p450, nos / cytochrome p450, nos + systemic…
[28] = systemic / in life observation / mortality / mortality + systemic / pathology gross / stomach / discolored + systemic / pathology gross / …
[29] = systemic / in life observation / body weight / body weight + systemic / in life observation / clinical signs / red or crusty deposits around…
[30] = systemic / in life observation / clinical signs / salivation + systemic / organ weight / liver / absolute
[31] = systemic / in life observation / body weight / body weight + systemic / in life observation / clinical signs / abnormal feces + systemic / …

`CCOCn1c(-c2ccc(Cl)cc2)c(C#N)c(Br)c1C(F)(F)F` [Chlorfenapyr] showed an NEL (rat [1]; [15]) of 24.1 mg/kg/day, an NOAEL (rat [1]; [15]) of 24.1 mg/kg/day and an LEL (rat [1]; [16]) of 48.4 mg/kg/day. The LOAEL (rat [1]; [16]) was 48.4 mg/kg/day, the LEL (rat [2]; [17]) was 22 mg/kg/day and the LOAEL (rat [2]; [17]) was 22 mg/kg/day. The NEL (rat [2]; [17]) was 5 mg/kg/day, the NOAEL (rat [2]; [17]) was 5 mg/kg/day and the NEL (rat [2]; group: parental, systemic / in life observation / body weight / body weight + systemic / in life observation / body weight / body weight gain) was 5 mg/kg/day. It also gave an LOAEL (rat [2]; group: parental, systemic / in life observation / body weight / body weight gain) of 22 mg/kg/day, an LEL (rat [2]; [18]) of 22 mg/kg/day and an NOAEL (rat [2]; [18]) of 5 mg/kg/day. For the same compound, the LEL (rat [2]; [19]) was 44 mg/kg/day, the LOAEL (rat [2]; [19]) was greater than 44 mg/kg/day and the NEL (rat [2]; [19]) was 22 mg/kg/day. The NOAEL (rat [2]; [19]) was no less than 44 mg/kg/day, the LOAEL (mouse [3]; [20]) was 14.8 mg/kg/day and the NEL (mouse [3]; [21]) was 7.1 mg/kg/day. For the same compound, the NOAEL (mouse [3]; [21]) was 7.1 mg/kg/day, the LEL (mouse [3]; systemic / pathology microscopic / liver / hypertrophy + systemic / hematology / lymphocyte / lymphocyte + systemic / hematology / …) was 14.8 mg/kg/day and the LEL (dog [4]) was 6.7 mg/kg/day. For the same compound, the LOAEL (dog [4]) was 6.7 mg/kg/day, the NEL (dog [4]) was 3.9 mg/kg/day and the NOAEL (dog [4]) was 3.9 mg/kg/day. The LOAEL (mouse [5]; systemic / in life observation / clinical signs / scabbing + systemic / pathology microscopic / brain / vacuolization) was 16.6 mg/kg/day, the NOAEL (mouse [5]; systemic / in life observation / clinical signs / scabbing + systemic / pathology microscopic / brain / vacuolization + systemic / …) was 2.8 mg/kg/day and the LEL (mouse [5]; [22]) was 2.8 mg/kg/day. The NEL (mouse [5]; [22]) was less than 2.8 mg/kg/day, the NEL (rat [6]; [23]) was 30.8 mg/kg/day and the NOAEL (rat [6]; [23]) was 2.9 mg/kg/day. It also gave an LOAEL (rat [6]; [20]) of 15 mg/kg/day, an LOAEL (dog [7]; systemic / in life observation / body weight / body weight + systemic / in life observation / body weight / body weight gain) of 8.7 mg/kg/day and an LEL (dog [7]; [24]) of 8.7 mg/kg/day. The NEL (dog [7]; [24]) was 4 mg/kg/day and the NOAEL (dog [7]; [24]) was 4 mg/kg/day.
With `CCC(CC)Nc1cc(C)nc(Oc2c(C)cc(C)cc2C)c1C` the LEL (dog [8]) was 1 mg/kg/day, the LOAEL (dog [8]) was greater than 1 mg/kg/day and the NEL (dog [8]) was less than 1 mg/kg/day. It also gave an NOAEL (dog [8]) of no less than 1 mg/kg/day, an LEL (dog [9]) of 5 mg/kg/day and an LOAEL (dog [9]) greater than 5 mg/kg/day. For the same compound, the NEL (dog [9]) was 1 mg/kg/day, the NOAEL (dog [9]) was no less than 5 mg/kg/day and the LEL (rat [10]; [25]) was 1 mg/kg/day. For the same compound, the NEL (rat [10]; [25]) was less than 1 mg/kg/day, the LOAEL (rat [10]; [26]) was greater than 100 mg/kg/day and the NOAEL (rat [10]; [26]) was no less than 100 mg/kg/day. The LOAEL (dog [11]; [27]) was greater than 20 mg/kg/day, the NOAEL (dog [11]; [27]) was no less than 20 mg/kg/day and the LEL (dog [11]; systemic / in life observation / clinical signs / abnormal feces) was 2 mg/kg/day. It also gave an LEL (rat [12]; systemic / in life observation / body weight / body weight + systemic / in life observation / body weight / body weight gain + systemic / …) of 100 mg/kg/day, an LOAEL (rat [12]; [28]) greater than 1000 mg/kg/day and an NOAEL (rat [12]; [28]) of no less than 1000 mg/kg/day. For the same compound, the LEL (dog [13]) was 20 mg/kg/day, the LOAEL (dog [13]) was greater than 20 mg/kg/day and the NEL (dog [13]) was 10 mg/kg/day. It also gave an NOAEL (dog [13]) of no less than 20 mg/kg/day, an LOAEL (rat [14]; [29]) greater than 500 mg/kg/day and an NOAEL (rat [14]; [29]) of no less than 500 mg/kg/day. It also gave an LEL (rat [14]; [30]) of 250 mg/kg/day, an NEL (rat [14]; [30]) of less than 250 mg/kg/day and an LOAEL (rabbit; [31]) greater than 500 mg/kg/day. For the same compound, the NEL (rabbit; [31]) was 50 mg/kg/day, the NOAEL (rabbit; [31]) was no less than 500 mg/kg/day and the LEL (rabbit; systemic / in life observation / food consumption / food consumption) was 100 mg/kg/day.
